{"source": "paper PMC12526203", "about": "“Multicomponent Synthesis of Multi-Target Quinazolines Modulating Cholinesterase, Oxidative Stress, and Amyloid Aggregation Activities for the Therapy of Alzheimer’s Disease” (Molecules, 2025)", "key": {"[1]": {"biological_target": "T1, Electrophorus electricus AChE (EeAChE) (Electrophorus electricus, UniProt O42275)", "T1 construct": "purchased Merck", "T1 sequence (O42275 24-633)": "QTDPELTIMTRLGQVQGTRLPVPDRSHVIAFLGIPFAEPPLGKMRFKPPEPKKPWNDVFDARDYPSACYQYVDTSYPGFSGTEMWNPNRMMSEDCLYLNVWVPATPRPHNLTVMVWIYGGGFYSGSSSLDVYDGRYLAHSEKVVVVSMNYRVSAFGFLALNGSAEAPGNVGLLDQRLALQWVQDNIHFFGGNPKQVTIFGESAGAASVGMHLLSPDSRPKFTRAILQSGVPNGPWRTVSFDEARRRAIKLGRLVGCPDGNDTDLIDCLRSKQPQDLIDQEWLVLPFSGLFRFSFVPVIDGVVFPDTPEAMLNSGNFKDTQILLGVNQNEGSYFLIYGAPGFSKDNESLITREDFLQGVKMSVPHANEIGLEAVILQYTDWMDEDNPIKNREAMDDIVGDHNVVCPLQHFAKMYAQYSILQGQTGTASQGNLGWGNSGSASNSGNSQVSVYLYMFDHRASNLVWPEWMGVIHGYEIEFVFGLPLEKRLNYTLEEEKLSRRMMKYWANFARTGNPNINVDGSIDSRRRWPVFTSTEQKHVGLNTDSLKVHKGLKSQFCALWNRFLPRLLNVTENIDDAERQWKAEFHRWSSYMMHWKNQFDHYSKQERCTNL", "test": "biochemical", "settings": "for IC50: Ellman method, pH 8.0; for inhibition at 10 µM: read-out: % inhibition of EeAChE at 10 μM (footnote c)", "description": "(§1) The inhibitory activities of the tested compounds against EeAChE and eqBuChE were determined using the spectrophotometric procedure based on Ellman’s method. […] After a pre-incubation step, acetylthiocholine iodide (105 µL, final concentration 0.35 mM) or butyrylthiocholine iodide (150 µL, final concentration 0.5 mM) was added, and the mixture was incubated for an additional 15 min."}, "[2]": {"biological_target": "T2, equine BuChE (eqBuChE) (Equus caballus, UniProt P81908)", "T2 construct": "purchased Merck", "T2 sequence (P81908 whole entry)": "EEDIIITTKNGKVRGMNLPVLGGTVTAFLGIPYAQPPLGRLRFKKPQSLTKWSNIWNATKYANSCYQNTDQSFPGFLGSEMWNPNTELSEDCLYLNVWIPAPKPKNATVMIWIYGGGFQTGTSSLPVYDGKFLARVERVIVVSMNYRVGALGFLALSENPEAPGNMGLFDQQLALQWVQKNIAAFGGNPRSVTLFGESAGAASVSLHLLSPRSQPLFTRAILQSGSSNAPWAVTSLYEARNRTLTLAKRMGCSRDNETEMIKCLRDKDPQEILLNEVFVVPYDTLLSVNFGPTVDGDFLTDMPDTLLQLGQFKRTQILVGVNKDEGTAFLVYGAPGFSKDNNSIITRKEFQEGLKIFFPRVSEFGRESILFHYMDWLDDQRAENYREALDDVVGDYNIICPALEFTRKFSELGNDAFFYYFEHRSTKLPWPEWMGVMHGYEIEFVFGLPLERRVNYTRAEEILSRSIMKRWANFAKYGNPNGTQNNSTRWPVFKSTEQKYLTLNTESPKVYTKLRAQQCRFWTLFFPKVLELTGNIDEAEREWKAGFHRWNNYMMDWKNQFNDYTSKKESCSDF", "test": "biochemical", "assay_type": "biochemical", "settings": "for inhibition at 10 µM: read-out: % inhibition of eqBuChE at 10 μM (footnote c); for IC50: pH 8.0", "description": "as §1"}, "[3]": {"biological_target": "T3, Aβ1–42 (Homo sapiens, UniProt P05067)", "T3 construct": "purchased Merck", "T3 sequence (P05067 672-713)": "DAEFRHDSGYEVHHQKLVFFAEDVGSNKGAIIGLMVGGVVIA", "test": "Aβ1–42 self-aggregation, thioflavin T-based fluorometric assay", "assay_type": "biochemical", "settings": "ThT assay; for inhibition at 50 µM (stock): [Aβ] = [Inhibitor] = 50 μM (Figure 1 legend)", "description": "Curcumin was used as a positive control.\nA ThT fluorescence assay evaluated the effect of the test compounds on Aβ1−42 fibril formation. Aβ stock solutions were diluted to 50 μM in ultrapure water before use. […] Control samples were prepared by replacing Aβ with 50 mM phosphate buffer (pH 7.4), with or without the inhibitors. After incubation, samples were diluted to 360 μL with 50 mM glycine-NaOH buffer (pH 8.0) containing thioflavin T (5 μM)."}, "[4]": {"test": "ORAC-FL (Oxygen Radical Absorbance Capacity by Fluorescence) assay", "settings": "Trolox equivalents", "description": "Briefly, fluorescein and the test compound were pre-incubated in a black 96-well microplate (Nunc) at 37 °C for 15 min. Then, 2,2′-azobis(amidinopropane) dihydrochloride was rapidly added using the integrated injector of a Varioskan Flash plate reader (Thermo Scientific). […] Each experiment was conducted in triplicate, with a minimum of three independent assays performed per compound."}, "[5]": {"settings": "reported as a standard antioxidant; cited from earlier work"}}, "note": "Values joined by “and” are separate entries in the source; they are usually repeats but may differ in a detail not shown here. Identical values can stand only once. “Also recorded” adds a separate entry of the source. Like-named read-outs stand apart in the source and are kept apart here."}
{"compound": "CCc1nc(Nc2ccc(OC)c(OC)c2)c2ccccc2n1", "note": "[3h, 2-ethyl-4-(3,4-Dimethoxyphenyl)aminoquinazoline]", "values": [{"measurement": "IC50", "setting": "[1]", "result": "6.67 µM and 6.61 µM"}, {"measurement": "eqBuChE inhibition (in words)", "setting": "[2]; Ellman method", "result": "inactive"}, {"measurement": "inhibition at 10 µM", "setting": "[2]", "result": "< 50", "unit": "%"}, {"measurement": "inhibition at 50 µM (stock)", "setting": "[3]", "result": 36.7, "unit": "%"}, {"measurement": "ORAC", "setting": "[4]", "result": "5.73 TE and 5.73 ± 0.39 TE"}]}
{"compound": "Cc1ccc(Nc2ncnc3ccccc23)cc1", "note": "[3i, 4-(p-Tolyl)aminoquinazoline]", "values": [{"measurement": "inhibition at 10 µM", "setting": "[1]", "result": "< 50", "unit": "%"}, {"measurement": "inhibition at 10 µM", "setting": "[2]", "result": "< 50", "unit": "%"}, {"measurement": "inhibition at 50 µM (stock)", "setting": "[3]", "result": 7.1, "unit": "%"}]}
{"compound": "COc1cc(Nc2nc(C)nc3ccccc23)cc(OC)c1", "note": "[3e, 2-methyl-4-(3,5-Dimethoxyphenyl)aminoquinazoline]", "values": [{"measurement": "IC50", "setting": "[1]", "result": "6.04 ± 1.05", "unit": "µM"}, {"measurement": "IC50", "setting": "[2]; Ellman method", "result": "9.43 ± 1.13", "unit": "µM"}, {"measurement": "Inhibition of Aβ1–42 self-aggregation (in words)", "setting": "[3]", "result": "did not display measurable activity"}, {"measurement": "ORAC", "setting": "[4]", "result": "1.81 ± 0.19", "unit": "TE"}]}
{"compound": "CCc1nc(Nc2cc(OC)cc(OC)c2)c2ccccc2n1", "note": "[3f, 2-ethyl-4-(3,5-Dimethoxyphenyl)aminoquinazoline]", "values": [{"measurement": "inhibition at 10 µM", "setting": "[1]", "result": "< 50", "unit": "%"}, {"measurement": "IC50", "setting": "[2]; Ellman method", "result": "8.5 ± 1.16", "unit": "µM"}, {"measurement": "inhibition at 50 µM (stock)", "setting": "[3]", "result": 13.6, "unit": "%"}, {"measurement": "ORAC", "setting": "[4]", "result": "1.29 ± 0.08", "unit": "TE"}]}
{"compound": "COc1cc(Nc2ncnc3ccccc23)cc(OC)c1", "note": "[3d, 4-(3,5-Dimethoxyphenyl)aminoquinazoline]", "values": [{"measurement": "inhibition at 10 µM", "setting": "[1]", "result": "< 50", "unit": "%"}, {"measurement": "inhibition at 10 µM", "setting": "[2]", "result": "< 50", "unit": "%"}, {"measurement": "Inhibition of Aβ1–42 self-aggregation (in words)", "setting": "[3]", "result": "did not display measurable activity"}]}
{"compound": "c1ccc(Nc2ncnc3ccccc23)cc1", "note": "[3a, 4-anilinoquinazoline]", "values": [{"measurement": "inhibition at 10 µM", "setting": "[1]", "result": "< 50", "unit": "%"}, {"measurement": "inhibition at 10 µM", "setting": "[2]", "result": "< 50", "unit": "%"}, {"measurement": "inhibition at 50 µM (stock)", "setting": "[3]", "result": 10.3, "unit": "%"}]}
{"compound": "Cc1nc(Nc2ccc([N+](=O)[O-])cc2)c2ccccc2n1", "note": "[3o, 2-Methyl-4-(4-nitrophenyl)aminoquinazoline]", "values": [{"measurement": "inhibition at 10 µM", "setting": "[1]", "result": "< 50", "unit": "%"}, {"measurement": "inhibition at 10 µM", "setting": "[2]", "result": "< 50", "unit": "%"}, {"measurement": "inhibition at 50 µM (stock)", "setting": "[3]", "result": 13.7, "unit": "%"}, {"measurement": "ORAC", "setting": "[4]", "result": "0.36 ± 0.01", "unit": "TE"}]}
{"compound": "COc1cc(/C=C/C(=O)CC(=O)/C=C/c2ccc(O)c(OC)c2)ccc1O", "note": "[Curcumin, reference compound]", "values": [{"measurement": "inhibition at 50 µM (stock)", "setting": "[3]", "result": 58, "unit": "%"}]}
{"compound": "CCc1nc(Nc2ccc(C)cc2)c2ccccc2n1", "note": "[3k, 2-Ethyl-4-(p-tolyl)aminoquinazoline]", "values": [{"measurement": "inhibition at 10 µM", "setting": "[1]", "result": "< 50", "unit": "%"}, {"measurement": "inhibition at 10 µM", "setting": "[2]", "result": "< 50", "unit": "%"}, {"measurement": "inhibition at 50 µM (stock)", "setting": "[3]", "result": 9.4, "unit": "%"}, {"measurement": "ORAC", "setting": "[4]", "result": "0.58 ± 0.04", "unit": "TE"}]}
{"compound": "Cc1nc(Nc2cccc(C)c2C)c2ccccc2n1", "note": "[3m, 2-methyl-4-(2,3-Dimethylphenyl)aminoquinazoline]", "values": [{"measurement": "inhibition at 10 µM", "setting": "[1]", "result": "< 50", "unit": "%"}, {"measurement": "inhibition at 10 µM", "setting": "[2]", "result": "< 50", "unit": "%"}, {"measurement": "inhibition at 50 µM (stock)", "setting": "[3]", "result": 15.8, "unit": "%"}]}
{"compound": "Cc1nc(Nc2ccccc2)c2ccccc2n1", "note": "[3b, 2-Methyl-4-anilinoquinazoline]", "values": [{"measurement": "inhibition at 10 µM", "setting": "[1]", "result": "< 50", "unit": "%"}, {"measurement": "inhibition at 10 µM", "setting": "[2]", "result": "< 50", "unit": "%"}, {"measurement": "Inhibition of Aβ1–42 self-aggregation (in words)", "setting": "[3]", "result": "did not display measurable activity"}, {"measurement": "ORAC", "setting": "[4]", "result": "0.51 ± 0.02", "unit": "TE"}]}
{"compound": "COc1ccc(Nc2ncnc3ccccc23)cc1OC", "note": "[3g, 4-(3,4-Dimethoxyphenyl)aminoquinazoline]", "values": [{"measurement": "inhibition at 10 µM", "setting": "[1]", "result": "< 50", "unit": "%"}, {"measurement": "inhibition at 10 µM", "setting": "[2]", "result": "< 50", "unit": "%"}, {"measurement": "inhibition at 50 µM (stock)", "setting": "[3]", "result": 14.7, "unit": "%"}, {"measurement": "ORAC", "setting": "[4]", "result": "5.46 TE and 5.46 ± 0.11 TE"}]}
{"compound": "Clc1ccc(Nc2ncnc3ccccc23)cc1", "note": "[3p, 4-(4-Chlorophenyl)aminoquinazoline]", "values": [{"measurement": "inhibition at 10 µM", "setting": "[1]", "result": "< 50", "unit": "%"}, {"measurement": "inhibition at 10 µM", "setting": "[2]", "result": "< 50", "unit": "%"}, {"measurement": "Inhibition of Aβ1–42 self-aggregation (in words)", "setting": "[3]", "result": "inactive; also recorded: did not display measurable activity"}, {"measurement": "ORAC", "setting": "[4]", "result": "0.40 ± 0.07", "unit": "TE"}]}
{"compound": "Cc1cccc(Nc2ncnc3ccccc23)c1C", "note": "[3l, 4-(2,3-Dimethylphenyl)aminoquinazoline]", "values": [{"measurement": "inhibition at 10 µM", "setting": "[1]", "result": "< 50", "unit": "%"}, {"measurement": "inhibition at 10 µM", "setting": "[2]", "result": "< 50", "unit": "%"}, {"measurement": "inhibition at 50 µM (stock)", "setting": "[3]", "result": 8.74, "unit": "%"}, {"measurement": "ORAC", "setting": "[4]", "result": "0.32 ± 0.05", "unit": "TE"}]}
{"compound": "Cc1ccc(Nc2nc(C)nc3ccccc23)cc1", "note": "[3j, 2-Methyl-4-(p-tolyl)aminoquinazoline]", "values": [{"measurement": "inhibition at 10 µM", "setting": "[1]", "result": "< 50", "unit": "%"}, {"measurement": "inhibition at 10 µM", "setting": "[2]", "result": "< 50", "unit": "%"}, {"measurement": "inhibition at 50 µM (stock)", "setting": "[3]", "result": 21.2, "unit": "%"}, {"measurement": "ORAC", "setting": "[4]", "result": "0.75 ± 0.08", "unit": "TE"}]}
{"compound": "CCc1nc(Nc2ccc(Cl)cc2)c2ccccc2n1", "note": "[3q, 2-ethyl-4-(4-Chlorophenyl)aminoquinazoline]", "values": [{"measurement": "inhibition at 10 µM", "setting": "[1]", "result": "< 50", "unit": "%"}, {"measurement": "IC50", "setting": "[2]; Ellman method", "result": "8.64 ± 0.3", "unit": "µM"}, {"measurement": "inhibition at 50 µM (stock)", "setting": "[3]", "result": 1.45, "unit": "%"}]}
{"compound": "O=[N+]([O-])c1ccc(Nc2ncnc3ccccc23)cc1", "note": "[3n, 4-(4-Nitrophenyl)aminoquinazoline]", "values": [{"measurement": "inhibition at 10 µM", "setting": "[1]", "result": "< 50", "unit": "%"}, {"measurement": "inhibition at 10 µM", "setting": "[2]", "result": "< 50", "unit": "%"}, {"measurement": "inhibition at 50 µM (stock)", "setting": "[3]", "result": 6.57, "unit": "%"}]}
{"compound": "CCc1nc(Nc2ccccc2)c2ccccc2n1", "note": "[3c, 2-Ethyl-4-anilinoquinazoline]", "values": [{"measurement": "inhibition at 10 µM", "setting": "[1]", "result": "< 50", "unit": "%"}, {"measurement": "IC50", "setting": "[2]; Ellman method", "result": "5.34 ± 0.15", "unit": "µM"}]}
{"compound": "COc1cc(/C=C/C(=O)O)ccc1O", "note": "[ferulic acid]", "values": [{"measurement": "ORAC", "setting": "[5]", "result": 3.7, "unit": "TE"}]}
